Experiment [1] deals with rat adrenal medulla-derived pheochromocytoma cell PC12h. Kind of experiment: Inhibition of glutamic acid-induced cell death of PC12h cells (LDH activity of cell extract). In kind it is cell-based. Particulars: for cell survival ratio: 1 mM glutamic acid, 72 hrs, survival in glutamic acid non-added plot = 100%, peptide not-added plot 34.0%. The method, then: Inhibitory Activity of the Humanin-Like Peptide against Glutanic Acid-Induced Cell Death of Rat Adrenal Medulla-Derived Pheochromocytoma Cell PC12h
PC12h cells (supplied by Prof. Hiroshi Hatanaka, Institute for Protein Research, Osaka University; Hatanaka, H., Brain Research 222: 225–233, 1981) were plated at a density of 2×10^4 cells/cm^2 in collagen-coated 96-well plates (Iwaki) containing Dulbecco's modified Eagle's medium (hereinafter referred to as “DMEM”) containing 10% fetal bovine serum and 5% horse serum. After 24 hrs, the medium was exchanged for 100 μl of DMEM containing […] HEPES (pH 7.5). At the same time, various concentrations of the humanin-like peptide prepared in Example 2 (SEQ ID NO: 4) and glutamic acid to give a concentration of 1 mM were added to the medium. After 72 hrs, cells were lysed with 100 μl of phosphate buffered saline containing 0.2% Tween 20. Then, the lactate dehydrogenase (LDH) activity of the cell extract was determined with LDH Cytotoxic Test WAKO (Wako Purechemical Industries).

The test system of experiment [2] is nerve cells into which the causative gene of familial Alzheimer's disease is introduced. Particulars: nerve cells with the causative gene of familial Alzheimer's disease introduced; Proc. Natl. Acad. Sci. USA 98: 6336–6341, 2001; cited from earlier work.
The subject of experiment [3] is nerve cells. The following applies: induced by the addition of β amyloid; Proc. Natl. Acad. Sci. USA 98: 6336–6341, 2001; cited from earlier work.

As for “humanin-like peptide: polypeptide comprising the amino acid sequence as shown in SEQ ID NO: 4; 24 residues, 6 different from humanin; synthesised in Example 2 (MARRGFSCLLLSTTATDLPVKRRT; Human)”, the “glutamic acid-induced cell death” value in experiment [1] (PC12h cells, conclusion in words) is “inhibited”. Further, the cell survival ratio in experiment [1] (humanin-like peptide 1 μM) is 59.3%; in experiment [1] (humanin-like peptide 10 μM), 74.6%.

For the substance “humanin: peptide consisting of 24 residues (WO 01/21787), encoded by a gene cloned from the occipital lobe by Hashimoto et al. (MAPRGFSCLLLLTSEIDLPVKRRA; Humanin; UniProt Q8IVG9 1-24, looked up)”, the “death of nerve cells” value in experiment [2] and in experiment [3] was “inhibited” in each case.

The record behind these values is patent US7053053B2, “Humanin-like peptide and use thereof” (Takeda Chemical Industries, Ltd., priority 2001, dated 2006).
